Results on 33 substances are retold here after patent US20050181376A1, “Antisense modulation of microsomal triglyceride transfer protein expression” (ISIS Pharmaceuticals, Inc., priority 2001, published 2005).

Strand notation (5' to 3'): a small letter for the sugar, then the base; units joined by * are phosphorothioate-linked, units joined directly phosphodiester-linked; [ ] holds rarer units or linkages, { } end groups; capitals alone tell only the bases. e = 2'-O-(2-methoxyethyl) (MOE); [5mC] = 5-methylcytosine; d = 2'-deoxy (DNA)

The subject of the data set is mouse microsomal triglyceride transfer protein mRNA. Briefly: Antisense inhibition of mouse microsomal triglyceride transfer protein mRNA levels in primary hepatocytes, quantitative real-time PCR. On the set-up: concentration or dose not given beside the values. The class given is cell-based. The following applies: averages from two experiments. The method, then: Primary mouse hepatocytes were prepared from CD-1 mice purchased from Charles River Labs (Wilmington, Mass.) and were routinely cultured in Hepatocyte Attachment Media (Gibco) supplemented with 10% Fetal Bovine Serum (Gibco/Life Technologies, Gaithersburg, Md.), 250 nM dexamethasone (Sigma), and 10 nM bovine insulin (Sigma). Cells were seeded into 96-well plates (Falcon-Primaria #3872) at a density of 10000 cells/well for use in RT-PCR analysis.
Cells were harvested 16-24 hours after oligonucleotide treatment.
All cytidine residues are 5-methylcytidines. […] Data are averages from two experiments. If present, “N.D.” indicates “no data”.
A general note: In qPCR the cycle at which signal appears reflects the starting amount.
With “144483 (e[5mC]*eA*eG*eA*eG*dG*dT*dG*dA*d[5mC]*dG*dG*d[5mC]*dA*dT*e[5mC]*e[5mC]*eA*e[5mC]*e[5mC]; antisense) [compound 144483]”, the “% INHIB (inhibition of mouse microsomal triglyceride transfer protein mRNA levels)” value (shortened to “% INHIB”) was 22%.
Consider “144501 (eG*eA*e[5mC]*e[5mC]*eA*d[5mC]*d[5mC]*d[5mC]*dT*dG*dG*dA*dT*d[5mC]*dT*e[5mC]*e[5mC]*eA*eT*eA; antisense) [compound 144501]”, for which the “% INHIB” value worked out at 52%.
In the case of “GTTATCACCACAGCCACCCG (all phosphorothioate, sugars by position and methylation of C not given here; 2'-MOE wings and deoxy gap) [ISIS 144503, 2′-MOE gapmer phosphorothioate antisense oligonucleotide to mouse MTP]” it was “at least 30%”; in that of “144508 (e[5mC]*eG*eT*e[5mC]*eA*dT*dA*dG*d[5mC]*dA*dT*dA*dT*d[5mC]*dG*eT*eT*e[5mC]*eT*eG; antisense) [compound 144508]”, 0%; in that of “144492 (eT*eG*e[5mC]*eA*e[5mC]*dA*dA*d[5mC]*dG*dG*dT*dG*dA*dG*d[5mC]*eA*eT*eG*eT*eA; antisense) [compound 144492]”, 39%.
Take “CCCAGCACCTGGTTTGCCGT (all phosphorothioate, sugars by position and methylation of C not given here; 2'-MOE wings and deoxy gap) [ISIS 144477, 2′-MOE gapmer phosphorothioate antisense oligonucleotide to mouse MTP]”: the “% INHIB” value is “at least 30%”.
For “CGCTGACAGGGTCGCCGGAT (all phosphorothioate, sugars by position and methylation of C not given here; 2'-MOE wings and deoxy gap) [ISIS 144499, 2′-MOE gapmer phosphorothioate antisense oligonucleotide to mouse MTP]” the value was “at least 30%”; for “144489 (eG*eT*eG*eG*e[5mC]*dT*dG*dA*d[5mC]*dG*dG*dG*d[5mC]*d[5mC]*d[5mC]*eT*eT*e[5mC]*eT*e[5mC]; antisense) [compound 144489]”, 42%.
For “144481 (eT*eT*e[5mC]*e[5mC]*eA*dG*dT*dG*d[5mC]*dT*d[5mC]*d[5mC]*dG*d[5mC]*d[5mC]*eA*eG*eA*eG*eA; antisense) [compound 144481]” the value was 33%; for “144484 (e[5mC]*e[5mC]*eT*eG*eG*dA*dG*dT*dA*dT*dG*dA*dT*dA*d[5mC]*eT*eG*e[5mC]*eT*eG; antisense) [compound 144484]”, 48%; for “144488 (e[5mC]*eA*eG*e[5mC]*e[5mC]*dT*d[5mC]*dA*dG*d[5mC]*dA*dT*dA*d[5mC]*dT*eT*e[5mC]*eA*eG*eA; antisense) [compound 144488]”, 35%.
In the case of “144486 (eA*eT*eT*e[5mC]*eT*dG*dA*d[5mC]*dA*d[5mC]*dA*dG*d[5mC]*dT*dT*e[5mC]*e[5mC]*eT*eG*eA; antisense) [compound 144486]” it was 34%.
On to “144470 (eG*eT*eA*eG*e[5mC]*d[5mC]*d[5mC]*dA*d[5mC]*dG*d[5mC]*dT*dG*dT*d[5mC]*eT*eT*eG*e[5mC]*eG; antisense) [compound 144470]”, for which the “% INHIB” value came out at 5%.
In the case of “CTCTGATGTCGTTGCTTGCA (all phosphorothioate, sugars by position and methylation of C not given here; 2'-MOE wings and deoxy gap) [ISIS 144485, 2′-MOE gapmer phosphorothioate antisense oligonucleotide to mouse MTP]” it was “at least 30%”; in that of “CCTGGAGTATGATACTGCTG (all phosphorothioate, sugars by position and methylation of C not given here; 2'-MOE wings and deoxy gap) [ISIS 144484, 2′-MOE gapmer phosphorothioate antisense oligonucleotide to mouse MTP]”, “at least 30%”.
On to “144467 (eG*e[5mC]*eT*e[5mC]*e[5mC]*d[5mC]*dT*d[5mC]*dT*dG*d[5mC]*d[5mC]*dA*d[5mC]*dA*eT*e[5mC]*e[5mC]*eA*eG; antisense) [compound 144467]”, for which the “% INHIB” value was determined as 0%.
In the case of “144509 (eA*e[5mC]*eT*eG*eT*dG*d[5mC]*dT*d[5mC]*dT*d[5mC]*dA*dG*dA*dG*eA*eG*e[5mC]*eA*eA; antisense) [compound 144509]”, the “% INHIB” value is on record as 0%.
With “144482 (eG*eA*eA*eG*eT*d[5mC]*d[5mC]*dG*dG*dA*dG*dG*dT*dG*d[5mC]*eT*eG*eG*eA*eT; antisense) [compound 144482]”, the “% INHIB” value was found to be 3%.
For “144472 (eG*e[5mC]*e[5mC]*e[5mC]*eT*dG*dG*dA*dA*dG*dA*dT*dG*d[5mC]*dT*e[5mC]*eT*eT*e[5mC]*eT; antisense) [compound 144472]” the value was 0%; for “144477 (e[5mC]*e[5mC]*e[5mC]*eA*eG*d[5mC]*dA*d[5mC]*d[5mC]*dT*dG*dG*dT*dT*dT*eG*e[5mC]*e[5mC]*eG*eT; antisense) [compound 144477]”, 94%; for “GTGGCTGACGGGCCCTTCTC (all phosphorothioate, sugars by position and methylation of C not given here; 2'-MOE wings and deoxy gap) [ISIS 144489, 2′-MOE gapmer phosphorothioate antisense oligonucleotide to mouse MTP]”, “at least 30%”.
For “TGCACAACGGTGAGCATGTA (all phosphorothioate, sugars by position and methylation of C not given here; 2'-MOE wings and deoxy gap) [ISIS 144492, 2′-MOE gapmer phosphorothioate antisense oligonucleotide to mouse MTP]”, the “% INHIB” value is on record as “at least 30%”.
In the case of “144476 (e[5mC]*e[5mC]*e[5mC]*eA*eG*dA*dG*dA*dT*dA*dT*d[5mC]*dT*dA*d[5mC]*e[5mC]*eT*e[5mC]*eG*eT; antisense) [compound 144476]” it was 19%; in that of “144493 (eG*e[5mC]*e[5mC]*eA*eG*dT*dA*dT*dA*dG*dG*d[5mC]*dA*dG*dA*eA*eG*eA*eG*eG; antisense) [compound 144493]”, 24%; in that of “144495 (e[5mC]*eA*eG*eA*eA*dT*dG*d[5mC]*d[5mC]*dA*dG*dA*dG*d[5mC]*d[5mC]*eA*eG*eA*eG*eT; antisense) [compound 144495]”, 42%.
With “GCTCGAGGACCTGTCCCACA (all phosphorothioate, sugars by position and methylation of C not given here; 2'-MOE wings and deoxy gap) [ISIS 144480, 2′-MOE gapmer phosphorothioate antisense oligonucleotide to mouse MTP]”, the “% INHIB” value is recorded as “at least 30%”.
“TTCCAGTGCTCCGCCAGAGA (all phosphorothioate, sugars by position and methylation of C not given here; 2'-MOE wings and deoxy gap) [ISIS 144481, 2′-MOE gapmer phosphorothioate antisense oligonucleotide to mouse MTP]”: the “% INHIB” value is recorded as “at least 30%”.
As for “144487 (e[5mC]*e[5mC]*e[5mC]*eA*eG*dG*dA*dT*d[5mC]*dA*dG*d[5mC]*dT*dT*d[5mC]*eT*eT*eA*eG*e[5mC]; antisense) [compound 144487]”, the “% INHIB” value was 19%.
For “144498 (eT*eG*eA*e[5mC]*eA*dT*dG*d[5mC]*d[5mC]*dA*dG*d[5mC]*dA*dT*dA*eA*eG*eA*eG*eT; antisense) [compound 144498]” the value was 44%; for “144496 (e[5mC]*eT*eG*e[5mC]*eA*dA*dT*dT*dA*dA*dG*d[5mC]*d[5mC]*dT*dT*e[5mC]*e[5mC]*eA*eG*e[5mC]; antisense) [compound 144496]”, 40%; for “144480 (eG*e[5mC]*eT*e[5mC]*eG*dA*dG*dG*dA*d[5mC]*d[5mC]*dT*dG*dT*d[5mC]*e[5mC]*e[5mC]*eA*e[5mC]*eA; antisense) [compound 144480]”, 51%.
In the case of “144499 (e[5mC]*eG*e[5mC]*eT*eG*dA*d[5mC]*dA*dG*dG*dG*dT*d[5mC]*dG*d[5mC]*e[5mC]*eG*eG*eA*eT; antisense) [compound 144499]” it was 38%; in that of “144504 (eG*eA*eA*e[5mC]*eT*d[5mC]*d[5mC]*dA*dG*d[5mC]*d[5mC]*d[5mC]*dA*dG*d[5mC]*e[5mC]*eT*e[5mC]*eT*eG; antisense) [compound 144504]”, 0%.
